Test results taken from the OPERA property sets (Mansouri et al. 2018).

SMILES | logP
CCCCCCCCCCCC(CC)c1ccccc1 (configuration not stated) | 9.29
CCCCCCCC(CCC)c1ccccc1 (configuration not stated) | 7.59
CCCCCCCCC(CCCCC)c1ccccc1 (configuration not stated) | 9.16
CCCCCCCCCC(C)c1ccccc1 (configuration not stated) | 7.63
CCCCCCC(CCCC)c1ccccc1 (configuration not stated) | 7.45
CCCCCCCCCC(CCC)c1ccccc1 (configuration not stated) | 8.62
CCCCCCCCCCC(CCC)c1ccccc1 (configuration not stated) | 9.25
CCCCCCCC(CCCC)c1ccccc1 (configuration not stated) | 8.01
CCCCCCCCCCCCc1ccccc1 | 8.65
CCCCCCCCCC(CC)c1ccccc1 (configuration not stated) | 8.1
CCCCCC(CCCC)c1ccccc1 (configuration not stated) | 6.9
CCCCCC(CCCCC)c1ccccc1 | 7.45
CCCCCCCCCCC(C)c1ccccc1 (configuration not stated) | 8.19
CCCCCCCCCCCc1ccccc1 | 8.14
CCCCCCCCCCCCC(C)c1ccccc1 (configuration not stated) | 9.29
CCCCCCCC(CCCCC)c1ccccc1 (configuration not stated) | 8.56
CCCCCCCCCCCC(C)c1ccccc1 (configuration not stated) | 8.77
CCCCCCCCC(CCC)c1ccccc1 (configuration not stated) | 8.07
CCCCCCCC(CC)c1ccccc1 (configuration not stated) | 7
CCCCCCCCC(C)c1ccccc1 (configuration not stated) | 7.06
CCCCCCCCCCCCCc1ccccc1 | 9.36
CCCCCCCCCC(CCCC)c1ccccc1 (configuration not stated) | 9.16
CCCCCCCCC(CCCC)c1ccccc1 (configuration not stated) | 8.56
CCCCCCC(CCCCC)c1ccccc1 (configuration not stated) | 8.01
CCCCCCC(CCC)c1ccccc1 (configuration not stated) | 7
CCCCCCCCCCC(CC)c1ccccc1 (configuration not stated) | 8.65
CCCCCCCCC(CC)c1ccccc1 (configuration not stated) | 7.53
